Measurements published in patent publication US6211170A, “Azetidinone derivatives for the treatment of HCMV infections” (Boehringer Ingelheim (Canada) Ltd., priority 1998, dated 2001).
pEC50, pIC50: −log10 of the molar value. Like-named read-outs stand apart in the source and are kept apart here.

Tests used:
HCMV NO protease = target: T1, HCMV NO protease (Human cytomegalovirus, UniProt P16753); test: HCMV NO Protease Assay (fluorogenic substrate cleavage); type: biochemical; conditions: HCMV NO protease 100 nM, substrate 5 μM, pH 8, 2.5 h at 30°
T1 construct: HCMV NO protease
Protocol: This particular assay determines the ability of a test compound to inhibit the activity (IC50) of HCMV protease. More specifically, in the assay described herein, the inhibitory activity of the test compound is evaluated on the basis of its ability to interfere with the HCMV NO protease cleavage of a fluorogenic peptide substrate which in turn is based on the maturation cleavage site of the enzyme.
1. HCMV NO Protease Assay
Material & Methods: Fluorescence measurements were recorded on a Perkin-Elmer LS-50B spectrofluorimeter equipped with a plate reader accessory. UV measurements were recorded on a Thermomax® microplate reader from Molecular Devices Corporation, Menlo Park, Calif., USA.
HCMV NO protease was assayed with an internally quenched fluorogenic substrate based on the maturation cleavage site (Abz-[…](3-NO2)R--OH, kcat /KM =260 M^-1 s^-1). The fluorescence increase upon cleavage of the Ala-Ser amide bond was monitored using excitation λ=312 nm (slit 2.5 nm) and emission λ=415 nm (slit 5 nm). A protocol adaptable to a 96-well plate format was designed for the determination of IC50 values of inhibitors.
After this period, enzymatic hydrolysis of the fluorogenic substrate in the absence of inhibitor led to about a 30% conversion. Quenching was not required before fluorescence measurement since the total scanning time by the plate reader accessory was brief relative to the duration of the reaction. The aqueous incubation buffer contained 50 mM tris(hydroxymethyl)aminomethane.HCl pH 8, 0.5M Na2 SO4, 50 mM NaCl, 0.1 mM EDTA, 1 mM tris(2-carboxyethyl)phosphine.HCl, 3% v/v DMSO and 0.05% w/v casein. The final concentrations of HCMV NO protease (expressed in terms of total monomer concentration) and substrate were 100 nM and 5 μM respectively. IC50 values were obtained through fitting of the inhibition curve to a competitive inhibition model using SAS NLIN procedure. The mode of inhibition was determined by measurements of the initial rates (in cuvettes) at various substrate concentrations in the buffer as described above. The IC50 values listed in the following tables were obtained according to this assay.

[1] = test system: HCMV (strain AD169, ATCC VR-538); test: Plaque Reduction Assay (PRA) in HCMV-infected Hs-68 cells; type: cell-based, human cytomegalovirus (HCMV)
Protocol: B. Plaque Reduction Assay (PRA):
Hs-68 cells (ATCC # CRL 1635) were seeded in 12-well plates at 83,000 cells/well in 1 mL of DMEM medium (Gibco Canada Inc.) supplemented with 10% fetal bovine serum (FBS, Gibco Canada Inc.). The plates were incubated for 3 days at 37° to allow the cells to reach 80-90% confluency prior to the assay.
The medium was removed from the cells by aspiration. The cells were then infected with approximately 50 PFU of HCMV (strain AD169, ATCC VR-538) in DMEM medium supplemented with 5% inactivated FBS (assay medium). (DMEM medium is commercially available and has been described by R. Dulbecco et al., Virology 1959, 8, 396.) The virus was allowed to adsorb to cells for 2 h at 37°. Following viral adsorption, the medium was removed from the wells by aspiration. The cells were then incubated with or without 1 mL of appropriate concentrations of test reagent in assay medium. Occasionally, test compounds were added 24 h post-infection. After 4 days of incubation at 37°, the medium was exchanged with fresh medium containing test compound and 4 days later the cells were fixed with 1% aqueous formaldehyde and stained with a 2% violet solution in 20% ethanol in water. Microscopic plaques were counted using a stereomicroscope. Drug effects were calculated as a percent reduction in the number of plaques in the presence of each drug concentration compared to the number observed in the absence of drug. Ganciclovir was used as a positive control in all experiments.

[2] = Cytotoxicity, tetrazolium salt (MTT) metabolic assay; type: cell-based; conditions: cytotoxic effects, read-out: TC50 (the source's name)
Protocol: Cytotoxic effects noted as TC50 in the following tables were determined according to the tetrazolium salt (MTT) metabolic assay, F. Denizot and F. Lang, J. Immun. Meth., 1986, 89, 271.

[3] = Human betaherpesvirus 5, Hs68, 192 h, plaque reduction, HCMV strain AD169, Hs-68 cells, 8 days, read-out: EC50
[4] = Human betaherpesvirus 5, AD169, Hs68, 192 h

T1 sequence (P16753 1-256): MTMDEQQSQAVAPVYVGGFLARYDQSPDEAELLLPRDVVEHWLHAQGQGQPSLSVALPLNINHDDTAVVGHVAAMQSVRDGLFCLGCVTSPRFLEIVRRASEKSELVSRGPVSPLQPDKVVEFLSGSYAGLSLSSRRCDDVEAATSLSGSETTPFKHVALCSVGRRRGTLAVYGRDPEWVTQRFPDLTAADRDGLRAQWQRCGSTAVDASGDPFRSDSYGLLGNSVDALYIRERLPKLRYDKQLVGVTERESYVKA

Row | SMILES | pIC50 (HCMV NO protease) | pEC50 [1, 3] | CC50 [2] | pEC50 [1, 4]
1 | CC[C@@H](NC(=O)N1C(=O)C[C@@H]1COc1cccc(CC(=O)O)c1)c1ccccc1 [Entry 136] | 7.00 |  |  | 
2 | CC[C@@H](NC(=O)N1C(=O)C[C@@H]1CS(=O)(=O)c1ccccc1)c1ccccc1 [Entry 144] | 5.72 | 5.30 | 58 µM | 
3 | CC[C@@H](NC(=O)N1C(=O)[C@@H](C)[C@@H]1CSC(C)C)c1ccccc1 [Entry 110] | 5.25 |  |  | 
4 | CC[C@@H](NC(=O)N1C(=O)C[C@@H]1COC(=O)Nc1ccccc1)c1ccccc1 [Entry 131] | 6.40 |  | > 32 µM | 4.70
5 | CC[C@@H](NC(=O)N1C(=O)[C@@H](C)[C@@H]1CSc1nccn1C)c1ccccc1 [Entry 116] | 5.72 | 3.89 | > 250 µM | 
6 | CCSC[C@H]1[C@H](C)C(=O)N1C(=O)N[C@H](CC)c1ccccc1 [Entry 120] | 5.40 |  |  | 
7 | CC[C@@H](NC(=O)N1C(=O)C[C@@H]1CSc1nccn1C)c1ccccc1 [Entry 140] | 6.15 |  | > 268 µM | < 3.57
8 | CC[C@@H](NC(=O)N1C(=O)C[C@@H]1CSc1ccccc1)c1ccccc1 [Entry 129] | 5.60 | < 3.60 | > 250 µM | 
9 | CC[C@@H](NC(=O)N1C(=O)[C@@H](C)[C@@H]1CSc1ccccn1)c1ccccc1 [Entry 108] | 5.92 | 3.74 | > 250 µM | 
10 | CC[C@@H](NC(=O)N1C(=O)[C@@H](C)[C@@H]1COc1ccccc1)c1ccccc1 [Entry 102] | 5.57 | < 3.60 | > 250 µM | 
11 | C[C@@H](NC(=O)N1C(=O)C[C@@H]1CSc1ccccc1)c1ccccc1 [Entry 212] | 5.36 | 4.51 | > 52 µM | 
12 | CN(Cc1ccc(C(=O)OCc2ccccc2)cc1)C(=O)N1C(=O)C[C@@H]1CSc1ncccn1 [Entry 304] | 5.60 | 3.92 | > 250 µM | 
13 | CC[C@@H](NC(=O)N1C(=O)C[C@@H]1COc1ccccc1)c1ccccc1 [Entry 130] | 5.28 | 4.00 | > 250 µM | 
14 | Cn1nnnc1SC[C@H]1CC(=O)N1C(=O)NC1CCc2ccccc21 (some centres unmarked) [Entry 211] |  | 3.85 | 188 µM | 
15 | CN(Cc1ccc(C(F)(F)F)cc1)C(=O)N1C(=O)C[C@@H]1CSc1nnnn1C [Entry 320] | 6.33 | 4.16 | > 250 µM | 
16 | CC[C@@H](NC(=O)N1C(=O)C[C@@H]1CN(CC)CC)c1ccccc1 [Entry 210] | 4.32 |  |  | 
17 | CC[C@@H](NC(=O)N1C(=O)C[C@@H]1CN(C)Cc1ccccc1)c1ccccc1 [Entry 137] | 5.00 | < 3.83 | > 147 µM | 
18 | CC[C@@H](NC(=O)N1C(=O)C[C@@H]1CSc1nc2ccccc2s1)c1ccccc1 [Entry 106] | 5.48 | < 3.60 | > 250 µM | 
19 | CC[C@@H](NC(=O)N1C(=O)C[C@@H]1COC(C)=O)c1ccccc1 [Entry 132] | 5.52 | 3.68 | > 250 µM | 
20 | CC[C@@H](NC(=O)N1C(=O)[C@@H](C)[C@@H]1CSc1nc(C)cc(C)n1)c1ccccc1 [Entry 126] | 5.55 | 4.60 | > 63 µM | 
21 | CC[C@@H](NC(=O)N1C(=O)[C@@H](C)[C@@H]1CSC1CCCC1)c1ccccc1 [Entry 121] | 5.37 | 3.82 | > 250 µM | 
22 | CC[C@@H](NC(=O)N1C(=O)[C@@H](C)[C@@H]1CSc1nnnn1C)c1ccccc1 [Entry 119] | 5.85 | 4.10 | > 250 µM | 
23 | CC[C@@H](NC(=O)N1C(=O)C[C@@H]1CSc1ccncc1)c1ccccc1 [Entry 107] | 5.70 | 4.04 | > 233 µM | 

Row | SMILES | pIC50 (HCMV NO protease) | pEC50 [1, 3] | CC50 [2] | pEC50 [1, 4]
24 | O=C(OCc1ccccc1)C1CCCN1C(=O)N1C(=O)C[C@@H]1CSc1ncccn1 (some centres unmarked) [Entry 401] | 4.68 |  |  | 
25 | COC(=O)c1ccc(CN(C)C(=O)N2C(=O)C[C@@H]2CSc2nc3ccccc3o2)cc1 [Entry 310] | 5.48 |  |  | 
26 | CC[C@@H](NC(=O)N1C(=O)C[C@@H]1CN1CCCCC1)c1ccccc1 [Entry 206, 2-oxo-4(R)-(piperidin-1-ylmethyl)azetidine-1-carboxylic acid (1(R)-phenylpropyl)amide] | 5.43 | < 3.60 | > 250 µM | 
27 | CC[C@@H](NC(=O)N1C(=O)C[C@@H]1CSc1ccccn1)c1ccccc1 [Entry 103] | 5.40 | 3.82 | > 250 µM | 
28 | CN(Cc1ccc(C(F)(F)F)cc1)C(=O)N1C(=O)C[C@@H]1CSc1ncccn1 [Entry 301] | 5.77 | 4.02 | > 250 µM | 
29 | CC[C@@H](NC(=O)N1C(=O)C[C@@H]1CSc1nccc(C)n1)c1ccccc1 [Entry 124] | 5.40 | < 3.60 | > 250 µM | 
30 | CN(Cc1ccc(C(F)(F)F)cc1)C(=O)N1C(=O)C[C@@H]1CSc1nc2ncccc2s1 [Entry 316] | 5.80 | 4.85 | > 18 µM | 
31 | CC[C@@H](NC(=O)N1C(=O)C[C@@H]1COC(=O)c1ccc2ccccc2c1)c1ccccc1 [Entry 133] | 6.02 |  | > 26 µM | 4.74
32 | CC[C@@H](NC(=O)N1C(=O)[C@@H](C)[C@@H]1CSc1nc2ncccc2s1)c1ccccc1 [Entry 125] | 5.96 | 3.85 | > 250 µM | 
33 | CN(Cc1ccccc1)C(=O)N1C(=O)C[C@@H]1CSc1ncccn1 [Entry 318] | 5.00 | 3.82 | > 150 µM | 
34 | CC[C@@H](NC(=O)N1C(=O)[C@@H](C)[C@@H]1CSc1ccccc1)c1ccccc1 [Entry 113] | 5.80 |  |  | 
35 | CC[C@@H](NC(=O)N1C(=O)C[C@@H]1CN1CCOCC1)c1ccccc1 [Entry 205] | 5.03 |  |  | 
36 | CN(CC1CCCCO1)C(=O)N1C(=O)C[C@@H]1CSc1ncccn1 (some centres unmarked) [Entry 315] | 4.55 |  |  | 
37 | O=C1C[C@H](CSc2ncccn2)N1C(=O)N1CCC[C@H]1c1ccccc1 [Entry 402, 1-(2(S)-phenyl-pyrrolidine-1-carbonyl)-4-(pyrimidin-2-ylsulfanylmethyl)azetidin-2-one] | 4.47 |  |  | 
38 | CN(C(=O)N1C(=O)C[C@@H]1CSc1ncccn1)c1ccccc1 [Entry 306] | 4.66 |  |  | 
39 | CC(=O)OC[C@H]1CC(=O)N1C(=O)NCc1ccncc1 [Entry 207] | 4.34 |  |  | 
40 | O=C1C[C@H](C[S+]([O-])c2ccccc2)N1C(=O)NCc1ccccc1 (stereo partly drawn) [Entry 202, 4(R) -benzenesulfinylmethyl-2-oxoazetidine-1-carboxylic acid benzylamide] | 4.89 |  |  | 
41 | COC(=O)c1ccc(CN(C)C(=O)N2C(=O)C[C@@H]2CSc2nccn2C)cc1 [Entry 308] | 4.66 |  |  | 
42 | CN(Cc1ccc([N+](=O)[O-])cc1)C(=O)N1C(=O)C[C@@H]1CSc1ncccn1 [Entry 322] |  | < 3.93 | > 118 µM | 
43 | CC[C@@H](NC(=O)N1C(=O)C[C@@H]1COc1cccc(CCC(=O)O)c1)c1ccccc1 [Entry 135] | 7.00 |  |  | 
44 | CN(Cc1ccco1)C(=O)N1C(=O)C[C@@H]1CSc1ncccn1 [Entry 303] | 4.77 |  |  | 
45 | O=C1C[C@H](CS(=O)(=O)c2ccccc2)N1C(=O)NCc1ccccc1 [Entry 203, 2(R)-benzenesulfonylmethyl-4-oxoazetidine-1-carboxylic acid benzyl amide] | 4.62 |  |  | 
46 | Cn1nnnc1SC[C@H]1CC(=O)N1C(=O)N1CCCC1c1ccccc1[N+](=O)[O-] (some centres unmarked) [Entry 408] |  | 4.00 | > 133 µM | 
